In patent publication US11541023B2, “Compounds and compositions for the treatment of neurodegenerative and inflammatory diseases” (SORBONNE UNIVERSITE, priority 2018, dated 2023):
Structures can show the parent of a compound that is named as a salt.

Legend:
[1] = target: KLK1 (Homo sapiens (Human), UniProt P06870); experiment: KLK1 enzymatic inhibition test (Boc-PFR-AMC); format: biochemical; details: for inhibition at 10 µM: KLK1 1.6 nM, Boc-PFR-AMC 100 μM, 15 min at 37° C., compound 10 μM; for IC50: KLK1, Boc-PFR-AMC, ni = non-inhibitor
Sequence of KLK1 (P06870 25-262): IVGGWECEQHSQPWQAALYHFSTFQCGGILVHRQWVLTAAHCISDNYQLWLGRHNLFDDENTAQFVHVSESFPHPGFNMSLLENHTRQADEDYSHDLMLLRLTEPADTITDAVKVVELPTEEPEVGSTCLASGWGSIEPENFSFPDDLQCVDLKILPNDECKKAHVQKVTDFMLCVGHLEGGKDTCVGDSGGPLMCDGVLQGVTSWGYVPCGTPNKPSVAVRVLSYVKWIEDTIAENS
Procedure: The molecules were tested in order to evaluate their possible inhibitory effect on the enzymatic activity of KLK1. […] The results are presented in Table 4 below; all the inhibitors are reversible.

[2] = target: KLK6 (Homo sapiens (Human), UniProt Q92876); experiment: KLK6 enzymatic inhibition test (fluorogenic/FRET peptide substrates); details: for inhibition at 10 µM: read-out: % Inhibition at 10 μM
[3] = test system: primary culture of murine cortical neurons; experiment: Neurocytotoxicity, XTT cell survival test; format: cell-based; details: for % cell survival: 48 h
Procedure: FIG. 1: Evaluation of the neurocytotoxicity of the compounds 1 (comparative), 2 and 4 (according to the invention). The percentage cell survival was determined by measuring the absorbance at 485 nm for each concentration compared with the controls treated only with complete medium (positive control) or 20% DMSO (negative control). Each concentration was tested in quadruplicate. The neurons were taken from the stage E16 embryos of Swiss females. The cells are seeded at a density of 50 000 cells/well in precoated sterile transparent 96-well plates. The cells are cultured for 48 h in DMEM medium supplemented with 10% fetal calf serum (FCS), penicillin, streptomycin, N2 and B27, at 37° C. under a humid atmosphere with 5% CO2. The cells are then placed in the presence of the compounds described above (10, 25 or 50 μM) or of the DMSO control, and then incubated for 48 h. The medium is then replaced with 100 μl of XTT (0.3 mg·ml^−1) in order to carry out the cell viability test. […] The activity of the mitochondria is determined by measuring the absorbance at 485 nm. The percentage cell survival is calculated by the ratio of the absorbance in the presence of the inhibitor relative to the control condition (DMSO). The molecule is considered to be cytotoxic when the percentage cell survival is less than 80%.

[4] = test system: CG4 cell line (rat oligodendrocyte precursor cells), GFP/mCherry; experiment: Cytotoxicity on GFP/mCherry oligodendrocyte line (Hoechst staining); format: cell-based; details: 72 h
Procedure: FIGS. 2 and 3: Evaluation of the cytotoxicity of the compounds 2 and 3 on the GFP/-mCherry oligodendrocyte line. The cell survival was evaluated by measuring the fluorescence intensity of the Hoechst staining compared with the basal control (TB). Each concentration was tested in quadruplicate. Statistics: Mann-Whitney test (p value=0.019). […] Legend—TB: basal control, T+: positive control (9-cis-retinoic acid). The line used is a CG4 cell line, said cell line being rat oligodendrocyte precursor cells (OPCs), and doubly transduced with the GFP gene under the control of the CMV promoter and the mCherry marker gene under the control of a promoter specific for differentiated and mature oligodendrocytes. The mCherry marker is expressed only at the differentiated oligodendrocyte stage and thus makes it possible to test compounds capable of inducing OPC differentiation. The cells were also stained with Hoechst in order to evaluate their viability. The cells are cultured in the proliferation medium described by Louis et al. (Louis et al., J Neurosci Res. 1992 January; 31(1):193-204) during their seeding, and then transferred into a differentiation medium (DMEM/F12, B27, N1, biotin, laminin). The cells are treated with various concentrations of inhibitor for 72 h in 96-well plates, then screened by means of an automated inverted microscope. The experimental controls used are a basal control containing only the differentiation medium and a positive control, 9-cis-retinoic acid, which is known for its effect in inducing OPC differentiation (Huang et al., Nature Neuroscience 14, 45-53 (2011)). Firstly, the cytotoxicity of the compounds is evaluated by virtue of the comparison of the intensity of the Hoechst staining for each experimental condition with respect to the basal control.

[5] = target: plasmin (Homo sapiens (Human), UniProt P00747); experiment: Plasmin enzymatic inhibition test (Boc-QAR-AMC / PAR4 FRET substrate); details: for inhibition at 10 µM: read-out: % Inhibition at 10 μM
Sequence of plasmin (P00747 581-810 limits assumed): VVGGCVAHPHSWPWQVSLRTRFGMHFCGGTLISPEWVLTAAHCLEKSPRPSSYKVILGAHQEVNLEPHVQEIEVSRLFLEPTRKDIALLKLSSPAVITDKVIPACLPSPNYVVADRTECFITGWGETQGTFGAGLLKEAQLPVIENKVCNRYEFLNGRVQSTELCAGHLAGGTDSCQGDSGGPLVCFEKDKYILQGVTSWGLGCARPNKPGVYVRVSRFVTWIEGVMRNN
Sequence of plasmin (P00747 97-580 partner limits assumed): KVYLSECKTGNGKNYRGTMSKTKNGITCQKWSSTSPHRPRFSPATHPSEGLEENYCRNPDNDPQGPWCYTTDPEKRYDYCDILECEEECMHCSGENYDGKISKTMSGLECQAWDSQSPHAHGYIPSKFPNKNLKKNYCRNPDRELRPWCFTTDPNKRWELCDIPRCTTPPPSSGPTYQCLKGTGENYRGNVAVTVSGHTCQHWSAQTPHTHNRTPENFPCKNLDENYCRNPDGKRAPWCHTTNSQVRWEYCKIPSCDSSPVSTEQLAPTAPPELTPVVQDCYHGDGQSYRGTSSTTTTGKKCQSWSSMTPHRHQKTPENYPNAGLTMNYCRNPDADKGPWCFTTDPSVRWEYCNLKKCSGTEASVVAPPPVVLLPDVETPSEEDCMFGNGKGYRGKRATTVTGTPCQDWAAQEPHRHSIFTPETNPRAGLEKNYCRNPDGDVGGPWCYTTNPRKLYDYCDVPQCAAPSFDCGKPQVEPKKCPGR

[6] = plasmin, FRET substrate PAR4, ni = non-inhibitor

SMILES: Cl.NCc1ccc(NC(=O)c2ccc3ccccc3c2O)cc1 [Compound 2, N-(4-(Aminomethyl)phenyl)-1-hydroxy-2-naphthamide hydrochloride]
- inhibition at 10 µM [1]: 47.7%
- IC50 [1]: ni
- inhibition at 10 µM [2]: 77.2%
- % cell survival ([3]; 10 μM): > 80%
- % cell survival ([3]; 25 μM): > 90%
- % cell survival ([3]; second statement printed as 25 μM (presumably 50 μM)): > 90%
- Cytotoxicity (Hoechst staining relative to basal control) ([4]; all concentrations tested): not cytotoxic
- inhibition at 10 µM [5]: 97.4%

SMILES: CC(C)(C)c1ccc(O)c(C(=O)Nc2ccc(CN)cc2)c1.Cl [Compound 1, N-(4-(Aminomethyl)phenyl)-5-tert-butyl-2-hydroxybenzamide hydrochloride, reference compound]
- inhibition at 10 µM [1]: 32.8%
- IC50 [1]: ni
- Inhibition type ([2]; KLK6, Boc-QAR-AMC, competitive/noncompetitive by Dixon method): Competitive
- IC50 ([2]; KLK6, FRET substrate MBP3): 39.8 µM
- IC50 ([2]; KLK6, FRET substrate PAR2): 21.7 µM
- IC50 ([2]; KLK6, substrate Boc-QAR-AMC): 9.06 µM
- Ki ([2]; KLK6, substrate Boc-QAR-AMC, Dixon method): 4.44 µM
- Inhibition type (reversibility) ([2]; KLK6, dilution method): reversible
- inhibition at 10 µM [2]: 51%
- % cell survival ([3]; 10 μM): > 80%
- Neurocytotoxicity ([3]; 10, 25 and 50 μM): dose-dependent effect
- Concentrations at which toxicity is exhibited ([4]; oligodendrocyte line): above 10 μM
- Inhibition type ([5]; plasmin, Boc-QAR-AMC, competitive/noncompetitive by Dixon method): Competitive
- IC50 [5, 6]: ni
- IC50 ([5]; plasmin, substrate Boc-QAR-AMC): 17.1 µM
- Ki ([5]; plasmin, substrate Boc-QAR-AMC, Dixon method): 14.4 µM
- Inhibition type (reversibility) ([5]; plasmin, dilution method): reversible
- inhibition at 10 µM [5]: 39.3%

SMILES: NCc1ccc(NC(=O)c2cc3ccccc3cc2O)cc1 [Compound 3, N-(4-(Aminomethyl)phenyl)-3-hydroxy-2-naphthamide hydrochloride]
- inhibition at 10 µM [1]: 77%
- inhibition at 10 µM [5]: 81%

SMILES: COc1ccc2c(O)c(C(=O)Nc3ccc(CN)cc3)ccc2c1 [Compound 5, N-(4-(Aminomethyl)phenyl)-6-methoxy-1-hydroxy-2-naphthamide hydrochloride]
- inhibition at 10 µM [1]: 46.5%
- inhibition at 10 µM [5]: 100%

SMILES: Cc1ccc(C(=O)Nc2ccc(CN)cc2)c(O)c1.Cl [Compound 4, N-(4-(Aminomethyl)phenyl)-4-methyl-2-hydroxybenzamide hydrochloride]
- inhibition at 10 µM [1]: 61.7%
- inhibition at 10 µM [2]: 68.8%
- % cell survival ([3]; 10 μM): > 80%
- % cell survival ([3]; 25 μM): > 90%
- Cytotoxicity ([4]; between 2 and 12 μM): does not exhibit any toxicity
- IC50 [5, 6]: ni
- inhibition at 10 µM [5]: 54.3%

SMILES: CC(C)c1ccc(C(=O)Nc2ccc(CN)cc2)c(O)c1 [Compound 6, N-(4-(Aminomethyl)phenyl)-4-isopropyl-2-hydroxybenzamide hydrochloride]
- inhibition at 10 µM [1]: 57.7%
- inhibition at 10 µM [2]: 84.7%
- inhibition at 10 µM [5]: 70.2%
